Laboratory results reported in US4957923A, “Diuretic or antihypertensive composition” (Fujisawa Pharmaceutical Co., Ltd., priority 1988, dated 1990).

Tests used:
Female beagle dogs = experiment: Diuretic action (beagle dogs); assay type: in vivo, dog (beagle); conditions: 100 mg/kg p.o., interval not given, mean ± S.E.
Experimental: Female beagle dogs weighing 8 to 10 kg were used (6 dogs per group). After an 18-hour fast, the animals were orally dosed with 5 ml/kg of suspensions of the drug in 0.5% methylcellulose and, at the same time, orally loaded with 15 ml/kg of physiological saline and the 0-6 hr and 6-24 hr urines were collected. Meanwhile, the dogs were additionally loaded with 20 ml/kg of physiological saline immediately after collection of the 0-6 hr urine. Na^+ in urine was determined with STAT/ION (Technicone).
The results were respectively converted to the amounts of excretion per kg body weight, which were then tabulated as the mean±S.E. for each dose level. The control group similarly received 0.5% methylcellulose instead of the drug.

DOCA hypertensive rats = experiment: Antihypertension action (DOCA hypertensive rats); assay type: in vivo, rat (Wistar)
Experimental: Male Wistar rats, 10 weeks old, were subjected to left nephrectomy and 2 to 4 days after operation, deoxycorticosterone acetate was administered subcutaneously in a dose of 30 mg/ml/kg twice a week. The animals were given 1% saline for drinking water and the individuals showing a mean blood pressure of ≥150 mmHg at 15 weeks of age were submitted to the experiment. After catheterization, saline for drinking water was replaced with tap water. At the beginning of the experiment, the test rats had mean blood pressures from 152 to 204 mmHg, heart rates from 354 to 462 beats/min. and body weights from 232 to 318 g. 3~5 Animals per group were used.
3 Or 4 days before the beginning of the experiment, one end of a catheter for blood pressure measurement was passed from the femoral artery to the abdominal aorta of each rat and the other end was passed beneath the skin and fixed in exposed position in the dorsocervical region. The drug was orally administered once a day for 5 consecutive days. The rats had been deprived of food for about 3 hours before drug administration. The blood pressure was measured before administration and 5 hours after administration of days 1, 3 and 5. At each blood pressure measurement, the mean blood pressure was observed via a pressure transducer connected to the dorsocervical end of the catheter for blood pressure measurement and the stabilized mean blood pressure was recorded.
Drug was suspended and diluted using a 0.5% solution of methylcellulose and 5ml/kg of the suspension was orally administered.

Female SD rats = experiment: Diuretic action (rats); assay type: in vivo, rat (SD); conditions: mean ± S.E.
Experimental: Female SD rats aged 6 weeks (9 rats per dosage) were used. After an 18-hour fast, the rats were dosed with the test drug and, at the same time, orally loaded with 20 ml/kg of physiological saline. The rats were then placed in metabolism cages, 3 animals per cage, and the 0-6 hour and 6-24 hour urines were collected. Meanwhile, the animals were additionally loaded with 25 ml/kg of physiological saline immediately after collection of the 0-6 hour urine. Na^+ in urine was determined with STAT/ION II (Technicon).
The results were respectively converted to the amounts of excretion per kg rat body weight, which were then tabulated as the mean±S.E. for each dose level.
The drug was suspended in 0.5% methylcellulose at necessary concentrations and 5 ml/kg of each suspension was orally administered. The control group similarly received 0.5% methylcellulose only.

[1] = 3.2 mg/kg p.o. once a day, Day 1 after 5 hr
[2] = 3.2 mg/kg p.o. once a day, Day 1 before administration (baseline)
[3] = 3.2 mg/kg p.o. once a day, Day 3 after 5 hr
[4] = 3.2 mg/kg p.o. once a day, Day 3 before administration
[5] = 3.2 mg/kg p.o. once a day, Day 5 after 5 hr
[6] = 3.2 mg/kg p.o. once a day, Day 5 before administration
[7] = 10 mg/kg p.o. once a day, Day 1 after 5 hr
[8] = 10 mg/kg p.o. once a day, Day 1 before administration (baseline)
[9] = 10 mg/kg p.o. once a day, Day 3 after 5 hr
[10] = 10 mg/kg p.o. once a day, Day 3 before administration
[11] = 10 mg/kg p.o. once a day, Day 5 after 5 hr
[12] = 10 mg/kg p.o. once a day, Day 5 before administration
[13] = 100 mg/kg p.o. once a day, Day 1 after 5 hr
[14] = 100 mg/kg p.o. once a day, Day 1 before administration (baseline)
[15] = 100 mg/kg p.o. once a day, Day 3 after 5 hr
[16] = 100 mg/kg p.o. once a day, Day 3 before administration
[17] = 100 mg/kg p.o. once a day, Day 5 after 5 hr
[18] = 100 mg/kg p.o. once a day, Day 5 before administration

O=C(O)Cn1c(=O)n(Cc2ccc(Br)cc2F)c(=O)c2ccc(F)cc21 [Compound B, 2-[7-Fluoro-3-(4-bromo-2-fluorobenzyl)-1,2,3,4-tetrahydro-2,4-dioxoquinazolin-1-yl]acetic acid]
Urine volume (Female beagle dogs; control 5.8 ± 1.4): 13.3 ± 2.6 mL/kg | Na^+ (urine) (Female beagle dogs; control 544 ± 133): 1068 ± 280 μEq/kg | Mean blood pressure (DOCA hypertensive rats; [1]): 176 mm Hg | Percentage of change (mean blood pressure) (DOCA hypertensive rats; [1]): -8.9% | Mean blood pressure (DOCA hypertensive rats; [2]): 193 mm Hg | Percentage of change (mean blood pressure) (DOCA hypertensive rats; [2]): 0.0% | Mean blood pressure (DOCA hypertensive rats; [3]): 160 mm Hg | Percentage of change (mean blood pressure) (DOCA hypertensive rats; [3]): -17.1% | Mean blood pressure (DOCA hypertensive rats; [4]): 175 mm Hg | Percentage of change (mean blood pressure) (DOCA hypertensive rats; [4]): -9.3% | Mean blood pressure (DOCA hypertensive rats; [5]): 161 mm Hg | Percentage of change (mean blood pressure) (DOCA hypertensive rats; [5]): -16.7% | Mean blood pressure (DOCA hypertensive rats; [6]): 167 mm Hg | Percentage of change (mean blood pressure) (DOCA hypertensive rats; [6]): -13.5% | Mean blood pressure (DOCA hypertensive rats; [7]): 148 mm Hg | Percentage of change (mean blood pressure) (DOCA hypertensive rats; [7]): -17.5% | Mean blood pressure (DOCA hypertensive rats; [8]): 180 mm Hg | Percentage of change (mean blood pressure) (DOCA hypertensive rats; [8]): 0.0% | Mean blood pressure (DOCA hypertensive rats; [9]): 132 mm Hg | Percentage of change (mean blood pressure) (DOCA hypertensive rats; [9]): -26.1% | Mean blood pressure (DOCA hypertensive rats; [10]): 137 mm Hg | Percentage of change (mean blood pressure) (DOCA hypertensive rats; [10]): -23.3% | Mean blood pressure (DOCA hypertensive rats; [11]): 143 mm Hg | Percentage of change (mean blood pressure) (DOCA hypertensive rats; [11]): -20.0% | Mean blood pressure (DOCA hypertensive rats; [12]): 139 mm Hg | Percentage of change (mean blood pressure) (DOCA hypertensive rats; [12]): -22.5% | Mean blood pressure (DOCA hypertensive rats; [13]): 151 mm Hg | Percentage of change (mean blood pressure) (DOCA hypertensive rats; [13]): -14.5% | Mean blood pressure (DOCA hypertensive rats; [14]): 176 mm Hg | Percentage of change (mean blood pressure) (DOCA hypertensive rats; [14]): 0.0% | Mean blood pressure (DOCA hypertensive rats; [15]): 130 mm Hg | Percentage of change (mean blood pressure) (DOCA hypertensive rats; [15]): -26.2% | Mean blood pressure (DOCA hypertensive rats; [16]): 144 mm Hg | Percentage of change (mean blood pressure) (DOCA hypertensive rats; [16]): -18.4% | Mean blood pressure (DOCA hypertensive rats; [17]): 135 mm Hg | Percentage of change (mean blood pressure) (DOCA hypertensive rats; [17]): -23.6% | Mean blood pressure (DOCA hypertensive rats; [18]): 138 mm Hg | Percentage of change (mean blood pressure) (DOCA hypertensive rats; [18]): -22.3% | Urine volume (Female SD rats; 100 mg/kg p.o., 0-6 hr, control 13.2 ± 2.0): 30.1 ± 1.5 mL/kg | Na^+ (urine) (Female SD rats; 100 mg/kg p.o., 0-6 hr, control 1460 ± 173): 2416 ± 101 μEq/kg | Urine volume (Female SD rats; 100 mg/kg p.o., 6-24 hr, control 26.59 ± 2.24): 33.69 ± 0.55 mL/kg | Na^+ (urine) (Female SD rats; 100 mg/kg p.o., 6-24 hr, control 3830 ± 463): 3940 ± 295 μEq/kg | Urine volume (Female SD rats; 100 mg/kg p.o., total 0-24 hr, control 39.78 ± 4.26): 63.75 ± 1.19 mL/kg | Na^+ (urine) (Female SD rats; 100 mg/kg p.o., total 0-24 hr, control 5289 ± 636): 6356 ± 311 μEq/kg | Urine volume (Female SD rats; 320 mg/kg p.o., 0-6 hr, control 13.2 ± 2.0): 37.9 ± 1.5 mL/kg | Na^+ (urine) (Female SD rats; 320 mg/kg p.o., 0-6 hr, control 1460 ± 173): 3021 ± 440 μEq/kg | Urine volume (Female SD rats; 320 mg/kg p.o., 6-24 hr, control 26.59 ± 2.24): 61.22 ± 6.20 mL/kg | Na^+ (urine) (Female SD rats; 320 mg/kg p.o., 6-24 hr, control 3830 ± 463): 5861 ± 194 μEq/kg | Urine volume (Female SD rats; 320 mg/kg p.o., total 0-24 hr, control 39.78 ± 4.26): 99.10 ± 6.64 mL/kg | Na^+ (urine) (Female SD rats; 320 mg/kg p.o., total 0-24 hr, control 5289 ± 636): 8882 ± 630 μEq/kg
